Patent US11834446B2, “Methods and compositions useful in treating cancer and reducing Wnt mediated effects in a cell” (StemSynergy Therapeutics, Inc., priority 2009, dated 2023)

Test system: Wnt reporter (TCF/LEF1 promoter) in HEK STF293 cells
Assay: HEK STF293 Wnt reporter (luciferase) assay
Type: cell-based
Settings: Homo sapiens, STF/293, Wnt3a-conditioned media, Steady Glo normalized to Cell Titer
Procedure: Screening with STF293 and SW480STF. HEK STF293 cells are seeded at approximately 25,000-30,000 cells/well in a 96-well (100 uL volume). On the first day, Wnt3a-conditioned media (1:1) will be added along with diluted compounds (1:100). For example, for 100 ul of STF293 cells, 100 ul of Wnt3a-conditioned media and 2 ul of drug will be added to each well. The final concentrations should therefore be 100 μM, 30 μM, 10 μM, 3 μM, 1 μM, 300 nM, 100 nM, 30 nM, 10 nM, 3 nM, 1 nM, and 0.3 nM. On the second day, the media is removed and 75 ul of Passive Lysis Buffer (Promega) is added to each well. The plate will be shaken at 130 rpm for 15 minutes. For the Steady Glo assay, 45 ul of the lysis is removed and added to a white 96-well plate containing 45 uL/well of Steady Glo solution (Promega). For the Cell Titer assay, 25 ul of the lysis is transferred to a white 96-well plate containing 25 ul/well of Cell Titer solution (Promega). Both Steady Glo and Cell Titer assays will be read with a luminescence plate reader. When determining EC50, the Steady Glo values will be divided by the Cell Titer values to normalize for cell number and the resulting values plotted in a dose-response curve.
Experimental. All compounds were tested using the human cell line HEK STF293. This cell line carries a Wnt reporter (TCF/LEF1 promoter), which drives expression of the firefly luciferase protein. The level of Wnt activity is directly correlated with the level of luciferase activity (determined using a simple assay). Compounds that inhibit Wnt signaling by reducing luciferase activity in these two cell lines are further tested biochemically.
Compounds were prepared as 10 mM stocks for each compound in DMSO. Dilutions were prepared in a 96-well plate in DMSO. The stock dilutions are as follows: 10 mM, 1 mM, […]. Plates were sealed and stored at −20 C.
HEK STF293 cells were seeded at approximately 25,000-30,000 cells/well in a 96-well (100 uL volume). On the first day, Wnt3a-conditioned media (1:1) were added along with diluted compounds (1:100). For example, for 100 ul of STF293 cells, 100 ul of Wnt3a-conditioned media and 2 ul of drug was added to each well. The final concentrations should therefore be 100 uM, 10 uM, 1 uM, 100 nM, 10 nM, and 1 nM. On the second day, the media is removed and 75 ul of Passive Lysis Buffer (Promega) is added to each well. The plate is shaken at 130 rpm for 15 minutes. For the Steady Glo assay, 45 ul of the lysis is removed and added to a white 96-well plate containing 45 uL/well of Steady Glo solution (Promega). For the Cell Titer assay, 25 ul of the lysis is transferred to a white 96-well plate containing 25 ul/well of Cell Titer solution (Promega). Both Steady Glo and Cell Titer assays were read with a luminescence plate reader. When determining EC50, the Steady Glo values were divided by the Cell Titer values to normalize for cell number.

## Cc1nn(Cc2ccccc2)c(C)c1NC(=O)c1cc2n(n1)C(C(F)(F)F)CC(c1ccccc1)N2 (stereo not drawn)
  EC50: ≤ 100 nM

## Cc1nn(Cc2ccc(F)cc2)c(C)c1NC(=O)c1cc(-c2ccc(F)cc2)on1
  EC50: > 100 nM

## Cc1nn(Cc2ccccc2)c(C)c1NC(=O)c1cc(-c2ccc(Br)cc2)on1
  EC50: ≤ 100 nM

## COc1ccccc1-c1cc(C(=O)Nc2c(C)nn(Cc3ccc(F)cc3)c2C)no1
  EC50: > 100 nM

## O=C(Nc1ccc(F)cc1)c1ccc(S(=O)(=O)N2CCc3ccccc32)cc1
  EC50: > 100 nM

## Cc1ccc(NS(=O)(=O)c2ccc(NC(=O)c3n[nH]c4c3CCc3ccccc3-4)cc2)cc1
  EC50: > 100 nM

## Cc1ccc(C)c(NS(=O)(=O)c2ccc(NC(=O)c3n[nH]c4c3CCc3ccccc3-4)cc2)c1
  EC50: > 100 nM

## COc1cc2nc(NC(=O)c3ccc(S(=O)(=O)N(C)c4ccccc4)cc3)sc2cc1OC
  EC50: > 100 nM

## COc1cc2nc(NC(=O)c3ccc(S(=O)(=O)N4CCc5ccccc54)cc3)sc2cc1OC
  EC50: > 100 nM

## O=C(Nc1nc(-c2ccccn2)cs1)c1ccc(S(=O)(=O)N2CCCc3ccccc32)cc1
  EC50: ≤ 100 nM

## Cc1sc(NC(=O)c2ccc(S(=O)(=O)N3CCc4ccccc43)cc2)nc1-c1ccccc1
  EC50: > 100 nM

## NC(=O)c1ccccc1NC(=O)c1ccc(S(=O)(=O)Nc2ccccc2)cc1
  EC50: > 100 nM
